Values quoted from earlier work in US6457474B1, “Method of treating chest pain” (priority 1997, dated 2002).

Tests used:
[1] = after the tablet has dissolved under the tongue

SMILES: O=[N+]([O-])OCC(CO[N+](=O)[O-])O[N+](=O)[O-] [nitroglycerin]
- systemic bioavailability (after oral administration): rather low
- plasma levels (high oral doses): erratic
- time for the angina attack to go away [1]: approximately five
